The values that follow are results of earlier work, collected in US12636262B2, “Process for the preparation of topical formulation” (Neuheit Pharma Technologies Pvt. Ltd, priority 2019, dated 2026).

For the series the following is noted: reported.

`CC(=O)Oc1cccc2c1C(=O)c1c(OC(C)=O)cc(C(=O)O)cc1C2=O` [Diacerein, 4,5-diacetyloxy-9,10-dioxo-anthracene-2-carboxylic acid]: the oral bioavailability is given as 40-60%.
